Test results published in PMC7026418, “The kinase polypharmacology landscape of clinical PARP inhibitors” (Scientific Reports, 2020).
Like-named read-outs stand apart in the source and are kept apart here. Values belong to the compound of their own block, whether it stands above or below them.

Tests used:
Test in all cases: biochemical
Set-up in all cases: DiscoveRx KINOMEscan active site-directed competition binding; percent of control kinase bound to immobilised ligand
AAK1 = AAK1 (Homo sapiens, UniProt Q2M2I8)
ASK1 = biological target: T1, ASK1 (Homo sapiens, UniProt Q99683)
T1 construct: gene MAP3K5
T1 sequence (Q99683 1-1374): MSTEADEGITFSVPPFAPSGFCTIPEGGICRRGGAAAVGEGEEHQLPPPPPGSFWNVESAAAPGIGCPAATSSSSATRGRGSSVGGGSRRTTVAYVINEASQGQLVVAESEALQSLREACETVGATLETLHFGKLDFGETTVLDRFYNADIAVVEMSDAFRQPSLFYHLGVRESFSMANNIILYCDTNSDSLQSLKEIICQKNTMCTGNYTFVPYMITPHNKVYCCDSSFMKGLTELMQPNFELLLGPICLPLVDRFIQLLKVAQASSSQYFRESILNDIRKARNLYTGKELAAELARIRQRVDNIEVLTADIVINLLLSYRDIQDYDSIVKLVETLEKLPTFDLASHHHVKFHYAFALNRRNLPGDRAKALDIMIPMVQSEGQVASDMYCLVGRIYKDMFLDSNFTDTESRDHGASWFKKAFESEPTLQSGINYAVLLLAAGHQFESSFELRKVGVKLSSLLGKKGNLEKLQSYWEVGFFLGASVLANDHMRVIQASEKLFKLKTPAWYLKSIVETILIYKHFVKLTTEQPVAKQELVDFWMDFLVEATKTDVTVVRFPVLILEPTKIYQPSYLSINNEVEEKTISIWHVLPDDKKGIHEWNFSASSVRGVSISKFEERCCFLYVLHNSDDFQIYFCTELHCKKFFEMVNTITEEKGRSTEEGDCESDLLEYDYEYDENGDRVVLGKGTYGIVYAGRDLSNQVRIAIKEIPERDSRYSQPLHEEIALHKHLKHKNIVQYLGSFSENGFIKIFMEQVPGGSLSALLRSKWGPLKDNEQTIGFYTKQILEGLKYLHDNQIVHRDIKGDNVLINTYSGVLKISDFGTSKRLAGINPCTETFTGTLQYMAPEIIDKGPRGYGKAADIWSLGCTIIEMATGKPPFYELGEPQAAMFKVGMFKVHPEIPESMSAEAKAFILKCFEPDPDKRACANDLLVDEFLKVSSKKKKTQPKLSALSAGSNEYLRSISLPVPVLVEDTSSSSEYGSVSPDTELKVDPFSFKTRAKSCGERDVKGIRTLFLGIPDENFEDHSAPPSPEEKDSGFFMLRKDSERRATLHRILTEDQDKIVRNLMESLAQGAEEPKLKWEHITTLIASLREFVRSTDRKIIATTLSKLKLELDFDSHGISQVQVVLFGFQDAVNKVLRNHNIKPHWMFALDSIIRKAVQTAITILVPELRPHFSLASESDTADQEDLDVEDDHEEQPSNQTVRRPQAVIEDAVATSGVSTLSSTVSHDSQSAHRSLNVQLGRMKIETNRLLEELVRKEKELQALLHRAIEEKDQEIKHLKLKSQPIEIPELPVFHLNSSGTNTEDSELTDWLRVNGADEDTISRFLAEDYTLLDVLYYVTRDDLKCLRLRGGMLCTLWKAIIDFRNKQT

MAP4K4 = MAP4K4 (Homo sapiens, UniProt O95819)
MYLK4 = biological target: T2, MYLK4 (Homo sapiens, UniProt Q86YV6)
T2 sequence (Q86YV6 1-388): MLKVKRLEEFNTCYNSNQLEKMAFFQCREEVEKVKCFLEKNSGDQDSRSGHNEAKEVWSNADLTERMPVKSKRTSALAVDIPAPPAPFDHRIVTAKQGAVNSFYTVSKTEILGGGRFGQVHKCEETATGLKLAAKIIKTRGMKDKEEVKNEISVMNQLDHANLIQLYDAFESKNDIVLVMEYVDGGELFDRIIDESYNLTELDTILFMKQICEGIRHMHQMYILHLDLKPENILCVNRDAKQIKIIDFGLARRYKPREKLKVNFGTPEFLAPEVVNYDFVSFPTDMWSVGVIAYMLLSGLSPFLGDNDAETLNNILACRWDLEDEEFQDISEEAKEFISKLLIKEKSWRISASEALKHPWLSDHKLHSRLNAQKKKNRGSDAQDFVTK

[1] = biological target: T3, RPS6KA5(Kin.Dom.2-C-terminal) (Homo sapiens, UniProt O75582)
T3 construct: Kin.Dom.2-C-terminal

[2] = biological target: T4, RSK1(Kin.Dom.2-C-terminal) (Homo sapiens, UniProt Q15418)
T4 construct: gene RPS6KA1; Kin.Dom.2-C-terminal

S6K1 = biological target: T5, S6K1 (Homo sapiens, UniProt P23443)
T5 construct: gene RPS6KB1

ZAK = biological target: T6, ZAK (Homo sapiens, UniProt Q9NYL2)
T6 construct: gene MAP3K20

[3] = read-out: Niraparib (MK-4827) / %Ctrl @ 10000nM
[4] = read-out: Rucaparib / %Ctrl @ 10000nM, binding competition, % of control
[5] = read-out: Olaparib / %Ctrl @ 10000nM
[6] = read-out: Talazoparib (BMN 673) / %Ctrl @ 10000nM

Sequence of MAP4K4 (O95819 whole entry): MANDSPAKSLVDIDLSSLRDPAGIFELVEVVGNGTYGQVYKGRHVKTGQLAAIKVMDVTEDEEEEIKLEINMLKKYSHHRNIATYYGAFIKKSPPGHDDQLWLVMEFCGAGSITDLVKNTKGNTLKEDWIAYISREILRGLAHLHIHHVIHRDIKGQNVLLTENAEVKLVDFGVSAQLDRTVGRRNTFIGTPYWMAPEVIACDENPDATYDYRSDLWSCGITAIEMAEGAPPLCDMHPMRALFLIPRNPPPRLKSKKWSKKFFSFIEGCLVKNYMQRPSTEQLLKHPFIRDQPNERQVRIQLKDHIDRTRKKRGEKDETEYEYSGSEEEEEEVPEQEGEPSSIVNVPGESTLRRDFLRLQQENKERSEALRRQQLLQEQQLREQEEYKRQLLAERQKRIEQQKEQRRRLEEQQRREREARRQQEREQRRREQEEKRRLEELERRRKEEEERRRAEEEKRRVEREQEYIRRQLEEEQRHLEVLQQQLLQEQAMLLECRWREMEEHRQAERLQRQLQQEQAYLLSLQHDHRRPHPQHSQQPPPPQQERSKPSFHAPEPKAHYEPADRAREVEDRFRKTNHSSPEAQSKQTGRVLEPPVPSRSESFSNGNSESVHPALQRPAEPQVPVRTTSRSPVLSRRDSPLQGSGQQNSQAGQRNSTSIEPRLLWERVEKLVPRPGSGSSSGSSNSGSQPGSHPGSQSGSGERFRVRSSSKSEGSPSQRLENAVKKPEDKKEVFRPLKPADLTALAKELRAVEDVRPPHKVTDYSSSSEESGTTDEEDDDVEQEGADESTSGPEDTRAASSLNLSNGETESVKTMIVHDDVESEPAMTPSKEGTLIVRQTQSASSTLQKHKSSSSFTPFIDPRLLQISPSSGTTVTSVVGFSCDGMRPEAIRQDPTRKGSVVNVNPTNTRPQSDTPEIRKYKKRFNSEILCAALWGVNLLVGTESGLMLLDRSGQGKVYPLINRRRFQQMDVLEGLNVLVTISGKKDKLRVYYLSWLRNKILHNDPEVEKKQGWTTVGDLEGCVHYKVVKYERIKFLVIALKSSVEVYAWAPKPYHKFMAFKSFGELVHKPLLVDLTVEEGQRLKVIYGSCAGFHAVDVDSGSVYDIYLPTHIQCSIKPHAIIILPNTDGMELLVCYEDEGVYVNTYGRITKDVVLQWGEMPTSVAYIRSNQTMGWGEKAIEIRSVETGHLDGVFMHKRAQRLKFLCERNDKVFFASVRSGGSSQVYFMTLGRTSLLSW
T5 sequence (P23443 whole entry): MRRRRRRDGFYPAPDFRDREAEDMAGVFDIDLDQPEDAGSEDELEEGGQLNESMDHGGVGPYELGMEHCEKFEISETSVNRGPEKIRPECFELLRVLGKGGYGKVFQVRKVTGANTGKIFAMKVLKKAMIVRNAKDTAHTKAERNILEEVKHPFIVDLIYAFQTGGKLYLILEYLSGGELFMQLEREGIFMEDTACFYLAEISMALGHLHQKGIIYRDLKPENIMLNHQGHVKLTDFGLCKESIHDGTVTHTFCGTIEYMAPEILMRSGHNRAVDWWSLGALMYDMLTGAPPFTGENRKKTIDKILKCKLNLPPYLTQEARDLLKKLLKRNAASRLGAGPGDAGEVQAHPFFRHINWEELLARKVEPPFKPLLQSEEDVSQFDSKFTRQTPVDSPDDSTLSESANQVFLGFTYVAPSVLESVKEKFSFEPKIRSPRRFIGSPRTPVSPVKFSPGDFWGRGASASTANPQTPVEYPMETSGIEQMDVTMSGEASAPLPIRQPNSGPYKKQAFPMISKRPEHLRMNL
T3 sequence (O75582 whole entry): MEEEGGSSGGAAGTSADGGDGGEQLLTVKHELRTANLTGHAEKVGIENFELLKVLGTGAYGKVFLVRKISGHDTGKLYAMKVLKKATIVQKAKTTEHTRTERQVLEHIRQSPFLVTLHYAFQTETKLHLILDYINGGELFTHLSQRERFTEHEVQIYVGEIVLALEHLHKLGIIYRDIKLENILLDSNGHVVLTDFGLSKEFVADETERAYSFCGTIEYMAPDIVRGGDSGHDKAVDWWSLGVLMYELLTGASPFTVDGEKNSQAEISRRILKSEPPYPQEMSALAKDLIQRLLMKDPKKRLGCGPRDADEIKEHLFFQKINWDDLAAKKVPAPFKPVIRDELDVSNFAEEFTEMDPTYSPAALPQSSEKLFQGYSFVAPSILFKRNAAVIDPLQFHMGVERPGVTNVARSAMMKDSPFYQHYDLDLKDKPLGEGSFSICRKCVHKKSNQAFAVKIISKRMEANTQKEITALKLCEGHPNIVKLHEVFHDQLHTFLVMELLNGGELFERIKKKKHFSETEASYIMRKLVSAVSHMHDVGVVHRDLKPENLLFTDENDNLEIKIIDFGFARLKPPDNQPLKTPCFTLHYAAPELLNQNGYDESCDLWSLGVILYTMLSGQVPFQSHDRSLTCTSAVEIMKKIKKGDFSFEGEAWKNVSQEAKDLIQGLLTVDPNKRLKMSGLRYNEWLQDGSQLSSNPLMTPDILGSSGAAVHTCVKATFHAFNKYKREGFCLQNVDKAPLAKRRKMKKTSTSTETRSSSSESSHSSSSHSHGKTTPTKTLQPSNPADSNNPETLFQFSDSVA
Sequence of AAK1 (Q2M2I8 whole entry): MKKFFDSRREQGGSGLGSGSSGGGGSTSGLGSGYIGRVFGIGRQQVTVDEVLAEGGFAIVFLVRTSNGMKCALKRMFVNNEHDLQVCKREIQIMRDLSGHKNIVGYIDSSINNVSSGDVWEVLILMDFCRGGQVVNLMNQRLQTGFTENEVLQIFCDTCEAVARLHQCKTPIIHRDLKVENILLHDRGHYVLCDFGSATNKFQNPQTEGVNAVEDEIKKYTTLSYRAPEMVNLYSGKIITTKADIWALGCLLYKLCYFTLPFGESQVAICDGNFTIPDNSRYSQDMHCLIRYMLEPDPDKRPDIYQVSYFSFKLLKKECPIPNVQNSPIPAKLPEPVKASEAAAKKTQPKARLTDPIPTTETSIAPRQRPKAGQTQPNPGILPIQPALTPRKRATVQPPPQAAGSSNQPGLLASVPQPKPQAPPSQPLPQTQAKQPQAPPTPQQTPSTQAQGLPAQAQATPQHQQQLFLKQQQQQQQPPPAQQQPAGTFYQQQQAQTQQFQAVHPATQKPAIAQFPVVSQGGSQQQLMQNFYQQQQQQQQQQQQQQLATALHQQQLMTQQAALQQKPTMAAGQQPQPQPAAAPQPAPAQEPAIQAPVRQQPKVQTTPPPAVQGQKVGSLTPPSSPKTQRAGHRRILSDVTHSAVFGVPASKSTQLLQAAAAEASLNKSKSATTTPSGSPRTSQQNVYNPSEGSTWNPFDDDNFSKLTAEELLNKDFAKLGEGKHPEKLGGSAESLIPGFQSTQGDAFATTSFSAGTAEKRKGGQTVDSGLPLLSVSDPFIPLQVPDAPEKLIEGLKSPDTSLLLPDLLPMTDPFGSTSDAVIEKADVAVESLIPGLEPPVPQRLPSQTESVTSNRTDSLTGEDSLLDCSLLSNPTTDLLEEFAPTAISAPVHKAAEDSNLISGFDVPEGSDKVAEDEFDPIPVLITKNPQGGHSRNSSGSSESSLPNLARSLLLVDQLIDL
T6 sequence (Q9NYL2 whole entry): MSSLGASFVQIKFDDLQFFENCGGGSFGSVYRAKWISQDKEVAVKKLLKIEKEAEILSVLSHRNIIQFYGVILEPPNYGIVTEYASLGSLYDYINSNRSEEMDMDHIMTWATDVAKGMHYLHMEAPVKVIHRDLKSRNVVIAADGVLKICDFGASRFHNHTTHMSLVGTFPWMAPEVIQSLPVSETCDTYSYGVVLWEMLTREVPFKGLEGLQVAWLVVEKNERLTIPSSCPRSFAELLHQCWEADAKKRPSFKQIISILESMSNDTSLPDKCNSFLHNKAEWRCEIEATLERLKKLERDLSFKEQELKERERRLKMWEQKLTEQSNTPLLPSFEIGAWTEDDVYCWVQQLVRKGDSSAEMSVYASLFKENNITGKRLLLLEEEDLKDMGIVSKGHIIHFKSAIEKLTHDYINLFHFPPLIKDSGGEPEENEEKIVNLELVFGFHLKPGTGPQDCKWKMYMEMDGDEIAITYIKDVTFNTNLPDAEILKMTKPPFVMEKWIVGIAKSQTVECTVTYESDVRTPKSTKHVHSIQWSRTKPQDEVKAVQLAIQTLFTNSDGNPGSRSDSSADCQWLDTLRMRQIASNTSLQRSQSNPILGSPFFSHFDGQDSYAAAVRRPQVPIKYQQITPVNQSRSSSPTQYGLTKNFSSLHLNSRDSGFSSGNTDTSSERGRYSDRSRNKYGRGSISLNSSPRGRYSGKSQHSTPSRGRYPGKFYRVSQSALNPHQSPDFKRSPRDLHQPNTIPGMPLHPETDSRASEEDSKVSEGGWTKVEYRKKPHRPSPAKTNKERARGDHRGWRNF
T4 sequence (Q15418 whole entry): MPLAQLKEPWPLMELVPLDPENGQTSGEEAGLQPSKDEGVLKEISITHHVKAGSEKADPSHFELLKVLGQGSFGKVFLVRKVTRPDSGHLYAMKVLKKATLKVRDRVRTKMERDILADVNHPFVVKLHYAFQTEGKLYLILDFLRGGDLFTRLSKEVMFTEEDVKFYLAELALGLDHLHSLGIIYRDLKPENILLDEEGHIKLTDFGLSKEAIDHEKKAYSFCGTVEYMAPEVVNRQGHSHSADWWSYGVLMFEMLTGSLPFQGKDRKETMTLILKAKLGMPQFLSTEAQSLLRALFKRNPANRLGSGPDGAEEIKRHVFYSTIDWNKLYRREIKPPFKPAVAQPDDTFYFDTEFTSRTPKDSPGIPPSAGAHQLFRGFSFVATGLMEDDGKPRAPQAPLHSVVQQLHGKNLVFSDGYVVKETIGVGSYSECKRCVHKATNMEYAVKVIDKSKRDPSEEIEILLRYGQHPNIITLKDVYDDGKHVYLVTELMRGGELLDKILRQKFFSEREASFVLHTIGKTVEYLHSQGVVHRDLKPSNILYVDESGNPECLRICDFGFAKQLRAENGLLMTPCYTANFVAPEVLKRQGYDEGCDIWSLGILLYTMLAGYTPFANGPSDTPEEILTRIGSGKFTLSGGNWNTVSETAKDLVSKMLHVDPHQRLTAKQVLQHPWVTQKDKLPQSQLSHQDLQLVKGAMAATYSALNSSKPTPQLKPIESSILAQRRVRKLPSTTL

Compound: NC(=O)c1cccc2cn(-c3ccc([C@@H]4CCCNC4)cc3)nc12 [Niraparib]
percent of control binding at 10 µM (AAK1; [3]): 83%
percent of control binding at 10 µM (ASK1; [3]): 90%
percent of control binding at 10 µM (MAP4K4; [3]): 94%
percent of control binding at 10 µM (MYLK4; [3]): 20%
percent of control binding at 10 µM [1, 3]: 96%
percent of control binding at 10 µM [2, 3]: 93%
percent of control binding at 10 µM (S6K1; [3]): 94%
percent of control binding at 10 µM (ZAK; [3]): 88%

percent of control binding at 10 µM (AAK1; [4]): 82%
percent of control binding at 10 µM (ASK1; [4]): 92%
percent of control binding at 10 µM (MAP4K4; [4]): 82%
percent of control binding at 10 µM (MYLK4; [4]): 1.3%
percent of control binding at 10 µM [1, 4]: 77%
percent of control binding at 10 µM [2, 4]: 70%
percent of control binding at 10 µM (S6K1; [4]): 60%
percent of control binding at 10 µM (ZAK; [4]): 93%
Compound: CNCc1ccc(-c2[nH]c3cc(F)cc4c3c2CCNC4=O)cc1 [Rucaparib]

percent of control binding at 10 µM (AAK1; [5]): 100%
percent of control binding at 10 µM (ASK1; [5]): 94%
percent of control binding at 10 µM (MAP4K4; [5]): 100%
percent of control binding at 10 µM (MYLK4; [5]): 92%
percent of control binding at 10 µM [1, 5]: 97%
percent of control binding at 10 µM [2, 5]: 76%
percent of control binding at 10 µM (S6K1; [5]): 73%
percent of control binding at 10 µM (ZAK; [5]): 94%
Compound: O=C(c1cc(Cc2n[nH]c(=O)c3ccccc23)ccc1F)N1CCN(C(=O)C2CC2)CC1 [Olaparib]

percent of control binding at 10 µM (AAK1; [6]): 93%
percent of control binding at 10 µM (ASK1; [6]): 93%
percent of control binding at 10 µM (MAP4K4; [6]): 100%
percent of control binding at 10 µM (MYLK4; [6]): 90%
percent of control binding at 10 µM [1, 6]: 80%
percent of control binding at 10 µM [2, 6]: 100%
percent of control binding at 10 µM (S6K1; [6]): 62%
percent of control binding at 10 µM (ZAK; [6]): 97%
Compound: Cn1ncnc1[C@H]1c2n[nH]c(=O)c3cc(F)cc(c23)N[C@@H]1c1ccc(F)cc1 [Talazoparib]
